Experimental data taken from patent US7825264B2, “Substituted heterocycles, their use as medicament, and pharmaceutical preparations comprising them” (sanofi-aventis, priority 2005, dated 2010).

Molecular target: T1, Human Kv1.5 channels (Homo sapiens, UniProt P22460)
T1 construct: expressed in transfected cells; host or cells: Xenopus laevis oocytes injected with RNA synthesized in vitro
Assay: Activity on the Kv1.5 channel: two-microelectrode voltage clamp on Xenopus oocytes expressing Kv1.5
Assay type: cell-based
Conditions: human Kv1.5 expressed in Xenopus oocytes, room temperature, Hill equation; read-out: Kv1.5 IC-50
Method: Determination of the Activity on the Kv1.5 Channel
Human Kv1.5 channels were expressed in xenopus oocytes. For this purpose, firstly oocytes were isolated from Xenopus laevis and defolliculated. Kv1.5-encoding RNA synthesized in vitro was then injected into these oocytes. After Kv1.5 protein expression for 1-7 days, Kv1.5 currents were measured on the oocytes using the two-microelectrode voltage clamp technique. The Kv1.5 channels were in this case usually activated with voltage jumps lasting 500 ms to 0 mV and 40 mV. A solution of the following composition flowed through the bath: NaCl 96 mM, KCl 2 mM, CaCl2 1.8 mM, MgCl2 1 mM, HEPES 5 mM (titrated to pH 7.4 with NaOH). These experiments were carried out at room temperature. The following were employed for data acquisition and analysis: Geneclamp amplifier (Axon Instruments, Foster City, USA) and MacLab D/A converter and software (ADInstruments, Castle Hill, Australia). The substances of the invention were tested by adding them in various concentrations to the bath solution. The effects of the substances were calculated as percent inhibition of the Kv1.5 control current which was obtained when no substance was added to the solution. The data were then extrapolated using the Hill equation in order to determine the inhibitory concentrations IC50 for the respective substances.

T1 sequence (P22460 whole entry): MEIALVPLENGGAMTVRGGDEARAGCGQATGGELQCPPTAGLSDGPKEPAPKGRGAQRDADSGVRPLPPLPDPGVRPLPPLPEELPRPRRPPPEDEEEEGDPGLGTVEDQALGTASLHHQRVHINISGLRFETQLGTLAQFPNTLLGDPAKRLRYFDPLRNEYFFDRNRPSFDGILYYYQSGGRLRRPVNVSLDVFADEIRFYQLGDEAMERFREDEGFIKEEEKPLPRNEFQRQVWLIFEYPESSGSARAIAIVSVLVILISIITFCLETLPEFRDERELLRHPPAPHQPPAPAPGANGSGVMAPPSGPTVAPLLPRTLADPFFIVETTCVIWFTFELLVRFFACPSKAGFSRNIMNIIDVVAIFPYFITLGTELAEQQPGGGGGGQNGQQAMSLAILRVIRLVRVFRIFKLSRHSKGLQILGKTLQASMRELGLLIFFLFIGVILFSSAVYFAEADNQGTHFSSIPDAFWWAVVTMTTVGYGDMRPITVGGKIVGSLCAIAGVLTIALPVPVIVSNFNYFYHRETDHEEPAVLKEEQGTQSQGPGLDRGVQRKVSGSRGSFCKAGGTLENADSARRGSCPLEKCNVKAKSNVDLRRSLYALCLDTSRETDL

SMILES	IC50 [nM]
O=C1CCCN1[C@H](c1ccc(F)cc1)[C@@H](OCC1CC1)c1cccc2ccccc12 (racemic) [Example 11, 1-[(1S′,2R′)-2-Cyclopropylmethoxy-1-(4-fluorophenyl)-2-naphthalen-1-ylethyl]pyrrolidin-2-one]	200
O=C1CCCN1[C@@H](c1ccccc1)[C@H](OCC1CC1)c1ccncc1 (racemic) [Example 91]	4000
CCCO[C@H](c1ccc(Cl)cc1)[C@H](c1ccccc1)N1CCCCC1=O (racemic) [Example 13]	210
COCCO[C@H](c1ccc(Cl)cc1)[C@H](c1ccccc1)N1CCCC1=O (racemic) [Example 47]	1000
O=C1CCCN1[C@@H](c1ccccc1)[C@H](OCCCC(F)(F)F)c1ccc(Cl)cc1 (racemic) [Example 22]	500
O=C1CCCN1[C@@H](c1ccccc1)[C@H](OCc1ccccc1)c1ccc(Cl)cc1 (racemic) [Example 72]	2100
CCCO[C@H](c1ccccc1)[C@H](c1ccccn1)N1CCCC1=O (racemic) [Example 71]	1600
O=C1CCCN1[C@H](c1ccc(F)cc1)[C@@H](OCC1CC1)c1cccc2cccnc12 (racemic) [Example 39]	1100
CO[C@H](c1ccccc1)[C@H](c1ccccc1)N1CCCC1=O [Example 85]	3600
CCCO[C@H](c1ccncc1)[C@H](c1ccccc1)N1CCCC1=O (racemic) [Example 97]	5400
COc1ccc(CO[C@@H](c2ccccc2)[C@@H](c2ccccc2)N2CCCCC2=O)cc1 [Example 103]	6600
O=C1CCCN1[C@@H](c1ccc(F)cc1)[C@H](OCC1CC1)c1ccc(OC(F)(F)F)cc1 (racemic) [Example 50]	900
N#Cc1ccc(O[C@H](c2ccc(F)cc2)[C@H](c2ccc(F)cc2)N2CCCC2=O)cc1 (racemic) [Example 92]	3800
CCCO[C@H](c1ccc(F)cc1)[C@H](c1ccccc1)N1CCCC1=O (racemic) [Example 20]	300
C=CO[C@H](c1ccc(F)c(F)c1)[C@H](c1ccc(F)cc1)N1CCCC1=O [Example 121]	900
O=C1CCCN1[C@H](c1ccc(F)cc1)[C@H](OCC1CC1)c1ccc(F)cc1 (racemic) [Example 27]	600
N#Cc1ccc(O[C@@H](c2cccc3cccnc23)[C@H](c2ccc(F)cc2)N2CCCC2=O)cc1 (racemic) [Example 10, 4-[(1R′,2R′)-2-(4-Fluorophenyl)-2-(2-oxopyrrolidin-1-yl)-1-quinolin-8-ylethoxy]benzonitrile]	4400
CO[C@H](C1CCCCC1)[C@H](c1ccc(F)cc1)N1CCCC1=O (racemic) [Example 78]	3300
CCCO[C@H](c1ccccc1)[C@H](c1ccccc1)N1CCCS1(=O)=O [Example 7, (1S,2R)-2-(1,2-Diphenyl-2-propoxyethyl)isothiazolidine-1,1-dioxide]	600
CCCO[C@H](c1ccccn1)[C@H](c1ccccc1)N1CCCC1=O (racemic) [Example 76]	2700
COc1ccc([C@@H](Oc2ccc(C#N)cc2)[C@H](c2ccc(F)cc2)N2CCCC2=O)cc1 (racemic) [Example 59]	1900
CCCO[C@H](c1ccccc1)[C@@H](c1ccccc1)N1CCCC1=O (racemic) [Example 19]	300
CCCO[C@H](c1ccc(F)cc1)[C@@H](c1ccc(F)cc1)N1CCCC1=O (racemic) [Example 33]	900
COc1ccc([C@@H](Oc2ccc(C(C)=O)cc2)[C@H](c2ccc(F)cc2)N2CCCC2=O)cc1 (racemic) [Example 110]	9700
Cc1ccc([C@H]([C@H](OCC2CC2)c2ccc(F)cc2)N2CCCC2=O)s1 (racemic) [Example 17]	300
N#Cc1ccc(O[C@H](c2ccc(F)c(F)c2)[C@H](c2cccnc2)N2CCCC2=O)cc1 (racemic) [Example 115]	~10000

Further molecules by falling IC50, results first:

IC50 [nM]	SMILES
~10000	O=C1CCCN1[C@@H](c1ccc(F)cc1)[C@H](Oc1ccccn1)c1ccc(F)c(F)c1 (racemic) [Example 114]
~10000	N#Cc1ccc(O[C@H](c2ccc(C(F)(F)F)cc2)[C@H](c2ccc(F)cc2)N2CCCC2=O)cc1 (racemic) [Example 116]
9600	N#Cc1ccc(O[C@H](c2ccc(F)c(F)c2)[C@H](c2ccc(F)cc2)N2CCCCC2=O)cc1 (racemic) [Example 107]
8800	O=C1CCCN1C(c1ccc(F)cc1)C(OCCCC(F)(F)F)c1cccc2cccnc12 (centres unmarked) [Example 111]
8300	N#Cc1ccc(O[C@H](c2cc(F)cc(F)c2)[C@H](c2ccc(F)cc2)N2CCCC2=O)cc1 (racemic) [Example 106]
6700	O=C1CCCN1[C@@H](c1ccccn1)[C@H](OCCF)c1ccccc1 (racemic) [Example 104]
6300	CO[C@H](c1ccc(F)c(F)c1)[C@H](c1ccc(F)cc1)N1CCCCC1=O (racemic) [Example 99]
5600	O=C1CCCN1[C@@H](c1ccc(F)cc1)[C@H](OCc1ccc(Cl)cc1)c1ccc(F)c(F)c1 (racemic) [Example 101]
5100	N#Cc1ccc(O[C@H](c2ccccc2)[C@H](c2ccccn2)N2CCCC2=O)cc1 (racemic) [Example 96]
4600	N#Cc1ccc(OC(c2ccnc3ccccc23)C(c2ccc(F)cc2)N2CCCC2=O)cc1 (centres unmarked) [Example 105]
4100	O=C1CCCCN1[C@@H](c1ccc(F)cc1)[C@H](OCC1CC1)c1cccc2cccnc12 (racemic) [Example 93]
4000	CO[C@@H](c1ccc(F)cc1)[C@H](c1ccccc1)N1CCCC1=O (racemic) [Example 88]
3200	COc1ccc(CO[C@H](c2ccc(F)c(F)c2)[C@H](c2cccnc2)N2CCCC2=O)cc1 (racemic) [Example 81]
2900	COc1ccc(CO[C@H](c2cccnc2)[C@H](c2ccc(F)cc2)N2CCCC2=O)cc1 (racemic) [Example 86]
2700	CO[C@H](c1ccc(F)cc1)[C@H](c1ccccc1)N1CCCC1=O (racemic) [Example 77]
1800	O=C1CCCN1[C@@H](c1ccccc1)[C@@H](OCc1ccccc1)c1ccc(F)cc1 (racemic) [Example 53]
1700	CCCO[C@@H](c1ccccc1)[C@@H](c1ccccc1)N1CCCS1(=O)=O [Example 54]
1700	O=C1CCCN1[C@H](c1ccccn1)[C@H](OCC1CC1)c1ccccc1 (racemic) [Example 63]

IC50 [nM]	SMILES
1600	N#Cc1ccc(CO[C@H](c2ccc(F)c(F)c2)[C@H](c2ccc(F)cc2)N2CCCC2=O)cc1 (racemic) [Example 69]
1400	O=C1CCCN1[C@H](c1ccc(F)cc1)[C@H](OCCCC(F)(F)F)c1ccc(F)cc1 (racemic) [Example 43]
1400	O=C1CCCCN1[C@@H](c1ccc(F)cc1)[C@@H](OCC1CC1)c1cccc2cccnc12 (racemic) [Example 1, 1-[(1R′,2S′)-2-Cyclopropylmethoxy-1-(4-fluorophenyl)-2-quinolin-8-ylethyl]-piperidin-2-one]
1200	CO[C@H](c1ccc(Cl)cc1)[C@H](c1ccccc1)N1CCCCC1=O (racemic) [Example 67]
1100	N#Cc1ccc(O[C@H](c2ccc(F)cc2)[C@H](c2cccc3cccnc23)N2CCCC2=O)cc1 (racemic) [Example 55]
1000	O=C1CCCN1[C@@H](c1ccccc1)[C@H](OCc1ccc(Cl)cc1)c1ccc(Cl)cc1 (racemic) [Example 57]
1000	N#Cc1ccc(O[C@H](c2ccc(Cl)cc2)[C@H](c2ccccc2)N2CCCC2=O)cc1 (racemic) [Example 45]
920	CCCO[C@@H](c1ccc(Cl)cc1)[C@@H](c1ccccc1)N1CCCC1=O (racemic) [Example 6, (1R′,2S′)-1-[2-(4-Chlorophenyl)-1-phenyl-2-propoxyethyl]pyrrolidin-2-one]
900	C[C@](c1ccccc1)([C@H](OCC1CC1)c1ccccc1)N1CCCC1=O (racemic) [Example 29]
900	O=C1CCCN1[C@@H](c1ccccc1)[C@H](OCCCC(F)(F)F)c1ccc(F)cc1 (racemic) [Example 51]
800	O=C1CCCN1[C@H](c1ccccc1)[C@H](OCC1CC1)c1ccc(F)cc1 (racemic) [Example 21]
700	O=C1CCCN1[C@@H](c1ccc(F)cc1)[C@H](OCC1CC1)c1cc(F)cc(F)c1 (racemic) [Example 37]
650	O=C1CCCN1[C@@H](c1ccc(F)cc1)[C@H](OCCCC(F)(F)F)C1CCCCC1 (racemic) [Example 24]
500	O=C1CCCN1[C@@H](c1ccccc1)[C@H](OCC1CC1)c1ccc(F)cc1 (racemic) [Example 44]
500	O=C1CCCN1[C@H](c1ccc(F)cc1)[C@H](OCC1CC1)c1cccc2ccccc12 (racemic) [Example 12, 1-[(1R′,2R′)-2-Cyclopropylmethoxy-1-(4-fluorophenyl)-2-naphthalen-1-ylethyl]pyrrolidin-2-one]
450	CCCO[C@@H](c1ccc(F)cc1)[C@H](c1ccccc1)N1CCCC1=O (racemic) [Example 25]
400	CCCO[C@@H](c1ccccc1)[C@@H](c1ccccc1)N1CCCC1=O [Example 18]
300	O=C1CCCN1[C@@H](c1ccc(F)cc1)[C@H](OCC1CC1)c1ccc(F)cc1 (racemic) [Example 117]
